Assays:
[1] = Cytotoxicity assay (7-AAD, flow cytometry); type: cell-based, human; settings: human, Jurkat cells; Jurkat, 24 h incubation
Procedure: The human cell lines Jurkat, K562, U937, and HEK293 were obtained from the European Collection of Authenticated Cell Cultures (ECACC) and subsequently cultured in accordance with established standard protocols and sterile techniques. […] Subsequently, the cells were seeded into 24-well plates at a density of 5 × 10^4 cells per well and incubated for 12 h (Jurkat, K562, U937) and 24 h (HEK293).
The viability of the cells was evaluated through the utilization of the 7-AAD (7-aminoactinomycin D) dye (eBioscience™, San Diego, CA, USA). Following a 24 h incubation period with the test substances, the cells were washed with phosphate-salt buffer (PBS) and centrifuged at 400× g for five minutes. […] Subsequently, all cell samples were subjected to analysis on a NovoCyte Penteon flow cytometer (Agilent, Santa Clara, CA, USA).

[2] = Cytotoxicity assay (7-AAD, flow cytometry); type: cell-based, human; settings: human
Procedure: The human cell lines Jurkat, K562, U937, and HEK293 were obtained from the European Collection of Authenticated Cell Cultures (ECACC) and subsequently cultured in accordance with established standard protocols and sterile techniques. The cells were maintained in RPMI 1640 (for Jurkat, K562, and U937) or DMEM (for HEK293) medium, both of which were supplemented with […], 10% FBS (Sigma, Kanagawa, Japan), and 100 units/mL penicillin-streptomycin (Sigma). Subsequently, the cells were seeded into 24-well plates at a density of 5 × 10^4 cells per well and incubated for 12 h (Jurkat, K562, U937) and 24 h (HEK293).
The viability of the cells was evaluated through the utilization of the 7-AAD (7-aminoactinomycin D) dye (eBioscience™, San Diego, CA, USA). Following a 24 h incubation period with the test substances, the cells were washed with phosphate-salt buffer (PBS) and centrifuged at 400× g for five minutes. The precipitate was resuspended in 200 μL of flow cytometry buffer (PBS without calcium and magnesium, 2.5% FBS) and incubated with a 1 mM 7-AAD dye solution for 15 min in the dark at room temperature. Subsequently, all cell samples were subjected to analysis on a NovoCyte Penteon flow cytometer (Agilent, Santa Clara, CA, USA).

[3] = HEK293 cells, HEK293, 24 h incubation
[4] = K562 cells, K562, 24 h incubation
[5] = U937 cells, U937, 24 h incubation

SMILES | CC50 at 24 h [1] | CC50 at 24 h [2, 3] | CC50 at 24 h [2, 4] | CC50 at 24 h [2, 5]
CC1(C)CC[C@]2(C(=O)Nc3cccc4cccnc34)CC[C@]3(C)C(=CCC4[C@@]5(C)CC[C@H](O)C(C)(C)C5CC[C@]43C)C2C1 (stereo partly shown) [compound 8i] | 165 ± 14.3 µM | 515 ± 40.3 µM | 155 ± 12.9 µM | 142 ± 12.5 µM
CC1(C)CC[C@]2(C(=O)Nc3nccs3)CC[C@]3(C)C(=CCC4[C@@]5(C)CC[C@H](O)C(C)(C)C5CC[C@]43C)C2C1 (stereo partly shown) [compound 8f] | 189 ± 17.4 µM | 611 ± 57.7 µM | 168 ± 17.1 µM | 157 ± 15 µM
CC(=O)O[C@H]1CC[C@@]2(C)C(CC[C@]3(C)C2CC=C2C4CC(C)(C)CC[C@]4(C(=O)Nc4nccs4)CC[C@]23C)C1(C)C (stereo partly shown) [compound 7f] | 152 ± 14.1 µM | 494 ± 42.2 µM | 144 ± 12.8 µM | 132 ± 12.9 µM
CC(=O)O[C@H]1CC[C@@]2(C)C(CC[C@]3(C)C2CC=C2C4CC(C)(C)CC[C@]4(C(=O)Nc4ccncc4)CC[C@]23C)C1(C)C (stereo partly shown) [compound 7g] | 143 ± 14.3 µM | 430 ± 41.9 µM | 125 ± 11.9 µM | 112 ± 12.3 µM
CC1(C)CC[C@]2(C(=O)Nc3nccs3)CC[C@]3(C)C(=CCC4[C@@]5(C)CC[C@H](OC(=O)CCC/C=C\CC/C=C\CCCC(=O)O)C(C)(C)C5CC[C@]43C)C2C1 (stereo partly shown) [compound 9f] | 96.7 ± 9.18 µM | 205 ± 19.7 µM | 84.4 ± 8.47 µM | 79.7 ± 6.78 µM
CC(=O)O[C@H]1CC[C@@]2(C)C(CC[C@]3(C)C2CC=C2C4CC(C)(C)CC[C@]4(C(=O)NC45CC6CC(CC(C6)C4)C5)CC[C@]23C)C1(C)C (stereo partly shown) [compound 7c] | 121 ± 11.8 µM | 366 ± 34.7 µM | 104 ± 10.6 µM | 98.9 ± 9.54 µM
CC1(C)CC[C@]2(C(=O)O)CC[C@]3(C)C(=CC[C@@H]4[C@@]5(C)CC[C@H](O)C(C)(C)[C@@H]5CC[C@]43C)[C@@H]2C1 [Oleanoic acid, Oleanolic acid] | 199 ± 18.4 µM | 497 ± 39.8 µM | 171 ± 16.5 µM | 144 ± 14.3 µM
CC1(C)CC[C@]2(C(=O)NCc3cccs3)CC[C@]3(C)C(=CCC4[C@@]5(C)CC[C@H](O)C(C)(C)C5CC[C@]43C)C2C1 (stereo partly shown) [compound 8e] | 165 ± 14.2 µM | 593 ± 53.9 µM | 149 ± 12.6 µM | 122 ± 12 µM
Cn1nccc1NC(=O)[C@]12CCC(C)(C)CC1C1=CCC3[C@@]4(C)CC[C@H](O)C(C)(C)C4CC[C@@]3(C)[C@]1(C)CC2 (stereo partly shown) [compound 8a] | 23.8 ± 2.84 µM | 110 ± 10.3 µM | 20.4 ± 2.11 µM | 19.6 ± 1.96 µM
CC(=O)O[C@H]1CC[C@@]2(C)C(CC[C@]3(C)C2CC=C2C4CC(C)(C)CC[C@]4(C(=O)NC(C)C45CC6CC(CC(C6)C4)C5)CC[C@]23C)C1(C)C (stereo partly shown) [compound 7d] | 120 ± 11.8 µM | 342 ± 33.8 µM | 99.9 ± 9.38 µM | 97.1 ± 8.96 µM
CC1(C)CC[C@]2(C(=O)Nc3ccncc3)CC[C@]3(C)C(=CCC4[C@@]5(C)CC[C@H](O)C(C)(C)C5CC[C@]43C)C2C1 (stereo partly shown) [compound 8g] | 160 ± 14.3 µM | 443 ± 40.3 µM | 137 ± 12.4 µM | 135 ± 12.8 µM
CC1(C)CC[C@]2(C(=O)Nc3cccc4cccnc34)CC[C@]3(C)C(=CCC4[C@@]5(C)CC[C@H](OC(=O)CCC/C=C\CC/C=C\CCCC(=O)O)C(C)(C)C5CC[C@]43C)C2C1 (stereo partly shown) [compound 9i] | 84.7 ± 8.21 µM | 262 ± 22.7 µM | 77.3 ± 6.85 µM | 62.9 ± 5.91 µM
Cc1c(NC(=O)[C@]23CCC(C)(C)CC2C2=CCC4[C@@]5(C)CC[C@H](O)C(C)(C)C5CC[C@@]4(C)[C@]2(C)CC3)c(=O)n(-c2ccccc2)n1C (stereo partly shown) [compound 8b] | 98.7 ± 9.39 µM | 267 ± 22.7 µM | 94.8 ± 9.57 µM | 85.4 ± 8.64 µM
CC1(C)CC[C@]2(C(=O)Nc3ccncc3)CC[C@]3(C)C(=CCC4[C@@]5(C)CC[C@H](OC(=O)CCC/C=C\CC/C=C\CCCC(=O)O)C(C)(C)C5CC[C@]43C)C2C1 (stereo partly shown) [compound 9g] | 80.4 ± 7.86 µM | 223 ± 21.8 µM | 72.1 ± 6.39 µM | 61.2 ± 6.48 µM
CC1(C)CC[C@]2(C(=O)NC34CC5CC(CC(C5)C3)C4)CC[C@]3(C)C(=CCC4[C@@]5(C)CC[C@H](OC(=O)CCC/C=C\CC/C=C\CCCC(=O)O)C(C)(C)C5CC[C@]43C)C2C1 (stereo partly shown) [compound 9c] | 54.4 ± 5.88 µM | 167 ± 15.5 µM | 49.2 ± 5.01 µM | 29.4 ± 3.18 µM
Cc1cc(NC(=O)[C@]23CCC(C)(C)CC2C2=CCC4[C@@]5(C)CC[C@H](O)C(C)(C)C5CC[C@@]4(C)[C@]2(C)CC3)no1 (stereo partly shown) [compound 8h] | 179 ± 17.1 µM | 598 ± 59 µM | 161 ± 16.4 µM | 155 ± 15.2 µM
CC(=O)O[C@H]1CC[C@@]2(C)C(CC[C@]3(C)C2CC=C2C4CC(C)(C)CC[C@]4(C(=O)Nc4cccc5cccnc45)CC[C@]23C)C1(C)C (stereo partly shown) [compound 7i] | 153 ± 13.9 µM | 456 ± 42.7 µM | 133 ± 12.9 µM | 122 ± 12.8 µM
CC(=O)O[C@H]1CC[C@@]2(C)C(CC[C@]3(C)C2CC=C2C4CC(C)(C)CC[C@]4(C(=O)NCc4cccs4)CC[C@]23C)C1(C)C (stereo partly shown) [compound 7e] | 131 ± 12.5 µM | 438 ± 42.6 µM | 125 ± 11.9 µM | 108 ± 11 µM
CC(NC(=O)[C@]12CCC(C)(C)CC1C1=CCC3[C@@]4(C)CC[C@H](O)C(C)(C)C4CC[C@@]3(C)[C@]1(C)CC2)C12CC3CC(CC(C3)C1)C2 (stereo partly shown) [compound 8d] | 110 ± 11.6 µM | 398 ± 37.6 µM | 93.8 ± 8.91 µM | 58.1 ± 6.26 µM
CC1(C)CC[C@]2(C(=O)NCc3cccs3)CC[C@]3(C)C(=CCC4[C@@]5(C)CC[C@H](OC(=O)CCC/C=C\CC/C=C\CCCC(=O)O)C(C)(C)C5CC[C@]43C)C2C1 (stereo partly shown) [compound 9e] | 76.3 ± 7.25 µM | 195 ± 17.9 µM | 69.8 ± 6.99 µM | 56.4 ± 5.11 µM
Cc1cc(NC(=O)[C@]23CCC(C)(C)CC2C2=CCC4[C@@]5(C)CC[C@H](OC(=O)CCC/C=C\CC/C=C\CCCC(=O)O)C(C)(C)C5CC[C@@]4(C)[C@]2(C)CC3)no1 (stereo partly shown) [compound 9h] | 91.2 ± 8.34 µM | 213 ± 18.3 µM | 81.5 ± 7.62 µM | 72.3 ± 6.85 µM
CC(=O)O[C@H]1CC[C@@]2(C)C(CC[C@]3(C)C2CC=C2C4CC(C)(C)CC[C@]4(C(=O)Nc4cc(C)on4)CC[C@]23C)C1(C)C (stereo partly shown) [compound 7h] | 146 ± 14 µM | 489 ± 44.8 µM | 139 ± 12.9 µM | 129 ± 11.7 µM
Cc1c(NC(=O)[C@]23CCC(C)(C)CC2C2=CCC4[C@@]5(C)CC[C@H](OC(=O)CCC/C=C\CC/C=C\CCCC(=O)O)C(C)(C)C5CC[C@@]4(C)[C@]2(C)CC3)c(=O)n(-c2ccccc2)n1C (stereo partly shown) [compound 9b] | 6.11 ± 0.56 µM | 21.4 ± 2.33 µM | 5.76 ± 0.69 µM | 4.86 ± 0.42 µM
CC1(C)CC[C@]2(C(=O)NC34CC5CC(CC(C5)C3)C4)CC[C@]3(C)C(=CCC4[C@@]5(C)CC[C@H](O)C(C)(C)C5CC[C@]43C)C2C1 (stereo partly shown) [compound 8c] | 115 ± 12.1 µM | 414 ± 39.5 µM | 94.7 ± 8.68 µM | 57.6 ± 6.49 µM
CC(=O)O[C@H]1CC[C@@]2(C)C(CC[C@]3(C)C2CC=C2C4CC(C)(C)CC[C@]4(C(=O)Nc4c(C)n(C)n(-c5ccccc5)c4=O)CC[C@]23C)C1(C)C (stereo partly shown) [compound 7b] | 86.5 ± 8.46 µM | 218 ± 20.7 µM | 81.3 ± 7.98 µM | 72.2 ± 7.34 µM

Reference: publication PMC11640419, “New Synthetic Analogs of Natural 5Z,9Z-Dienoic Acids—Hybrid Molecules Based on Oleanolic Acid: Synthesis and Study of Antitumor Activity” (Cancers, 2024)
